Results taken from patent US8232289B2, “Spiropiperidine compounds as ORL-1 receptor antagonists” (Eli Lilly and Company, priority 2009, dated 2012).
Marks after values point to notes of the source that are not given here.

Legend:
[1] = molecular target: 5-HT6 (Homo sapiens, UniProt P50406); assay: Radioligand binding selectivity, 5-HT6
Excerpt: Similarly, Ki for the mu, kappa and delta opioids, serotonin, dopamine, adrenergic, mucarinic, and histamine receptors, as well as binding to the norepinephrine transporter, sodium channel, chloride channel, and calcium channel may be determined using membranes expressing the desired receptor/transporter/channels and appropriate corresponding radioligand competitor molecules.

[2] = test system: Male Sprague-Dawley rats; assay: Rat dural plasma protein extravasation (PPE) model, oral dosing; format: in vivo
Method: All test compounds are prepared in a vehicle solution containing 20% Captisol in 25 mM phosphate buffer (pH 2.0). The positive control compound, sumatriptan, is dissolved in saline. Male Sprague-Dawley rats from Harlan Laboratories (250 to 350 g), that have been fasted overnight, are dosed with test compound, sumatriptan or vehicle by oral gavage (2 mL/kg). Fifty min. post-dose the rats are anesthetized with Nembutal (60 mg/kg, ip) and placed in a stereotaxic frame with the incisor bar set at −2.5 mm. Following a mid-line sagittal scalp incision, 2 pairs of bilateral holes were drilled through the skull (3.2 mm posteriorly, 1.8 and 3.8 mm laterally, all coordinates referenced to bregma). Pairs of stainless steel stimulating electrodes (Rhodes Medical Systems Inc), insulated except at the tips, are lowered through the holes in both hemispheres to a depth of 9.2 mm below the dura.
A solution of fluoroscein isothiocyanate (FITC) dye-labeled bovine serum albumin (BSA) (FITC-BSA) (20 mg/kg, iv), is injected into the femoral vein 2 minutes prior to electrical stimulation of the trigeminal ganglion to function as the marker for protein extravasation. Sixty minutes following dosing with test compound or vehicle, the left trigeminal ganglion is electrically stimulated for 5 minutes at a current intensity of 1.0 mA (5 Hz, 5 minutes duration).
Five minutes following stimulation, the rats are killed by exsanguination with 40 mL of saline which also rinses residual FITC/BSA out of the blood vessels. The top of the skull is removed to collect the dural membranes. The membrane samples are removed from both hemispheres, rinsed with water, and spread flat on microscope slides. The slides are dried for 15 minutes on a slide warmer and cover-slipped with a 70% glycerol/water solution.
A fluorescence microscope equipped with a grating monochromator and a spectrophotometer is used to quantify the amount of FITC-BSA dye in each dural sample. The microscope is equipped with a motorized stage interfaced with a personal computer. This facilitates the computer-controlled movement of the stage, with fluorescence measurements at 25 points (500 μm steps) on each dural sample. The extravasation induced by electrical stimulation of the trigeminal ganglion is an ipsilateral effect (that is occurs only on the side of the dura in which the trigeminal ganglion is stimulated). This allows the other (unstimulated) half of the dura to be used as a control. The extravasation ratio (that is the ratio of the amount of extravasation in the dura from the stimulated side compared to the unstimulated side) is calculated. Animals dosed with vehicle alone or an ineffective dose of the test compound have an extravasation ratio of approximately 2, while totally effective treatments result in a ratio of approximately 1.
Results are expressed as mean values with standard errors of the mean (±SEM). All statistical evaluations are conducting utilizing ANOVA followed by comparison to the control group by Dunnett's Method. Statistical significance is assumed when p<0.05. Statistical analyses are performed using JMP statistical analysis software (SAS Research Institute, version 6.0.2).

Sequence of 5-HT6 (P50406 whole entry, species assumed): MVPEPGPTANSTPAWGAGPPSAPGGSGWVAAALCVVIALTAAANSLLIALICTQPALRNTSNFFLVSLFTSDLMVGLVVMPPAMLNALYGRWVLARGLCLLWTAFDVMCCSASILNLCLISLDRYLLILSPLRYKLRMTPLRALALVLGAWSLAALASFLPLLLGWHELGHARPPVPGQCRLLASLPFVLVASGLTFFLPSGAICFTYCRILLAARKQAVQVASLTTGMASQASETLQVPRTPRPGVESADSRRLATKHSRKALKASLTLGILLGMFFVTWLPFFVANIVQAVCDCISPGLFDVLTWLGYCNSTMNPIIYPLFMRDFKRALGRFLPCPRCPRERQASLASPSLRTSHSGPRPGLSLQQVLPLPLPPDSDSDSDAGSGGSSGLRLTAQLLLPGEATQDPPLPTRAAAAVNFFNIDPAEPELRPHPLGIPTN

SMILES | Ki [1] [µM] | Extravasation Ratio (mean) ([2]; 0.1 mg/kg po) | Extravasation Ratio (mean) ([2]; 1.0 mg/kg po) | Extravasation Ratio (mean) ([2]; 10.0 mg/kg po) | Extravasation Ratio (mean) ([2]; 30.0 mg/kg po) | blockade of extravasation ([2]; oral dosing)
O=C(O)C(O)C(O)C(=O)O.OCc1nn(-c2ncccc2F)cc1CN1CCC2(CC1)OCC(F)(F)c1cc(Cl)sc12 [Example 53, [4-[(2-Chloro-4,4-difluoro-spiro[5H-thieno[2,3-c]pyran-7,4′-piperidine]-1′-yl)methyl]-1-(3-fluoro-2-pyridyl)pyrazol-3-yl]methanol (L)-Tartrate] | > 5.83 | – | – | – | – | –
Cc1nn(-c2ncccc2CO)cc1CN1CCC2(CC1)OCC(F)(F)c1cc(Cl)sc12 [Example 62, [2-[4-[(2-Chloro-4,4-difluoro-spiro[5H-thieno[2,3-c]pyran-7,4′-piperidine]-1′-yl)methyl]-3-methyl-pyrazol-1-yl]-3-pyridyl]methanol] | – | 1.83 | 1.44* | 1.20* | 1.14* | effectively block extravasation in a dose dependent manner
